Reference: US20120010075A1 (priority 2009, published 2012)
Like-named read-outs stand apart in the source and are kept apart here.

Columns and labels:
[1] = tested on: Leptosphaeria nodorum (LEPTNO); assay: In vitro fungitoxicity of hydrazones with and without copper towards Leptosphaeria nodorum (Example 26); type: cell-based; conditions: 72 h at 25° C.; for inhibition of growth at 0.05 µg/mL: Parastagonospora nodorum, 72 h, copper-minus medium, read-out: LEPTNO % Inhn. Minus Copper Observed
[2] = tested on: Phytophthora infestans; type: in vivo, Phytophthora infestans on tomato; conditions: applied 24 h before inoculation, assessed 7 days after inoculation
[3] = test compound Concn. 0.05 μg/mL
[4] = copper-plus medium (CuCl2 10 μM), test compound Concn. 0.05 μg/mL
[5] = hydrazone 50 ppm with 50 μM CuCl2.2H2O, tomato late blight
[6] = compound 0.05 μg/mL, copper-plus medium (CuCl2.2H2O)
[7] = hydrazone 50 ppm + 50 μM CuCl2.2H2O, tomato

Row | Structure (SMILES) | melting point [°C] | inhibition of growth at 0.05 µg/mL [1, 3] [%] | LEPTNO % Inhn. Plus Copper Observed [1, 4] [%] | TLB % Control [2, 5] [%] | inhibition of growth at 0.05 µg/mL ([1]; compound 0.05 μg/mL) [%] | LEPTNO % Inhn. Plus Copper Observed [1, 6] [%] | TLB % Control [2, 7] [%]
1 | O=C(N/N=C/c1cc(Cl)cc(C(F)(F)F)c1O)c1cccc([N+](=O)[O-])c1 [Example 382] | 235 to 237 | 19.3 | 98.5 | 96.0 | – | – | –
2 | O=C(N/N=C(/c1ccccc1O)C(F)(F)F)c1ccccc1 [Example 591] | 208 to 210 | 0 | 9.9 | 11.0 | – | – | –
3 | C/C(=N\NC(=O)c1ccccc1Br)c1cc(Cl)ccc1O [Example 514] | 222 to 225 | 0 | 97.7 | 75.0 | – | – | –
4 | C/C(=N\NC(=O)c1ccccc1C)c1cc(Br)ccc1O [Example 288] | 201 to 203 | – | – | – | 1.8 | 98.2 | 26.0
5 | O=C(N/N=C/c1cc(Cl)c(Cl)cc1O)c1ccccc1 [Example 240] | 238 to 241 | – | – | – | 0 | 98.1 | 74.6
6 | COc1cccc(C(=O)N/N=C/c2cc(Cl)cc(Br)c2O)c1 [Example 166] | 166 to 168 | – | – | – | 2.6 | 97.9 | 71.9
7 | Cc1ccc(C(=O)N/N=C/c2cc(Cl)cc(C(F)(F)F)c2O)cc1 [Example 377] | 276 to 278 | 29.9 | 97.6 | 100.0 | – | – | –
8 | O=C(N/N=C/c1c(Cl)ccc(Cl)c1O)c1ccccc1O [Example 372] | 260 to 262 | 15.1 | 97.4 | 98.0 | – | – | –
9 | CC(C)(C)N(/N=C/c1ccccc1O)C(=O)c1ccccc1 [Example 217] | 91 to 104 | – | – | – | 0 | 92.7 | 0.0
10 | COc1cc(O)c(/C(C)=N/NC(=O)c2ccccc2C)c(OC)c1 [Example 584] | 269 to 274 | 3 | 11.8 | 7.6 | – | – | –
11 | O=C(N/N=C/c1c(Cl)ccc(Cl)c1O)c1ccccc1C(F)(F)F [Example 373] | 221 to 222 | 0 | 97.3 | 90.0 | – | – | –
12 | O=C(N/N=C/c1cc(C(F)(F)F)ccc1O)c1ccc([N+](=O)[O-])cc1 [Example 442] | 259 to 265 | 0 | 100.0 | 98.0 | – | – | –
13 | Cc1ccc(C(=O)N/N=C/c2ccc(Cl)cc2O)cc1 [Example 388] | 258 to 260 | 17.2 | 98.1 | 61.0 | – | – | –
14 | COc1ccc(C(=O)N/N=C(\C)c2cc(Cl)cc(Cl)c2O)cc1 [Example 469] | 226 to 227 | 1 | 97.8 | 95.0 | – | – | –
15 | C/C(=N\NC(=O)c1ccc(C)cc1)c1cc(F)cc(F)c1O [Example 575] | 220 to 222 | 0 | 98.1 | 100.0 | – | – | –
16 | Cc1ccc(O)c(C(=O)N/N=C/c2cc(Cl)cc(Cl)c2O)c1 [Example 258] | 277 to 280 | – | – | – | 34.1 | 97.4 | 87.0

Row | Structure (SMILES) | melting point [°C] | inhibition of growth at 0.05 µg/mL [1, 3] [%] | LEPTNO % Inhn. Plus Copper Observed [1, 4] [%] | TLB % Control [2, 5] [%] | inhibition of growth at 0.05 µg/mL ([1]; compound 0.05 μg/mL) [%] | LEPTNO % Inhn. Plus Copper Observed [1, 6] [%] | TLB % Control [2, 7] [%]
17 | COc1cc(O)c(/C(C)=N/NC(=O)c2cccc(C)c2)c(OC)c1 [Example 585] | 207 to 209 | 6.3 | 86.3 | 62.0 | – | – | –
18 | C/C(=N\NC(=O)c1cccc(C)c1)c1cc(C)ccc1O [Example 313] | 182 to 184 | 8.5 | 98.5 | 28.0 | – | – | –
19 | Cc1cccc(C(=O)N/N=C/c2c(Cl)ccc(Cl)c2O)c1 [Example 365] | 214 to 216 | 13.8 | 95.6 | 95.0 | – | – | –
20 | C/C(=N\NC(=O)c1ccccc1C)c1cc(F)cc(F)c1O [Example 573] | 186 to 188 | 2.4 | 98.4 | 93.0 | – | – | –
21 | COc1ccc(/C(C)=N/NC(=O)c2ccccc2C)c(O)c1 [Example 281] | 170 to 172 | – | – | – | 1.4 | 98.4 | 67.0
22 | Cc1ccc(C(=O)N/N=C/c2cc(C(F)(F)F)cc(C(F)(F)F)c2O)c(O)c1 [Example 342] | 251 to 254 | 9.1 | 98.3 | 86.0 | – | – | –
23 | O=C(N/N=C/c1cc(Cl)cc(Cl)c1O)c1ccc(C(F)(F)F)cc1 [Example 81] | 238 to 240 | – | – | – | 2.4 | 96.1 | 97.0
24 | O=C(N/N=C/c1cc(Cl)c(C(F)(F)F)cc1O)c1ccccc1 [Example 318] | 242 to 243 | 3.1 | 97.3 | 71.2 | – | – | –
25 | O=C(N/N=C/c1cc(C(F)(F)F)cc(C(F)(F)F)c1O)c1ccc(F)cc1 [Example 335] | 226 to 228 | 10.2 | 96.8 | 95.0 | – | – | –
26 | Cc1ccc(C(=O)N/N=C/c2cccc(C(F)(F)F)c2O)c(O)c1 [Example 352] | 248 to 253 | 8.8 | 98.4 | 100.0 | – | – | –
27 | Cc1cccc(C(=O)N/N=C/c2ccc(Cl)c(Cl)c2O)c1 [Example 354] | 212 to 214 | 18.4 | 95.4 | 98.0 | – | – | –
28 | Cc1ccc(C(=O)N/N=C/c2cc(C(F)(F)F)ccc2O)cc1 [Example 436] | 245 to 249 | 14.6 | 98.2 | 94.0 | – | – | –
29 | C/C(=N\NC(=O)c1ccc(C(F)(F)F)cc1)c1ccc(Cl)cc1O [Example 461] | 244 to 245 | 3.4 | 96.7 | 54.0 | – | – | –
30 | Cc1cccc(C(=O)N/N=C/c2cccc(Cl)c2O)c1 [Example 423] | 166 to 169 | 0.8 | 98.0 | 98.0 | – | – | –
31 | COc1cccc(C(=O)N/N=C(\C)c2cc(Cl)cc(Cl)c2O)c1O [Example 484] | 258 to 259 | 12.6 | 93.2 | 88.0 | – | – | –
